Experimental data from ChEMBL document CHEMBL3734659, “Identification of tris-(phenylalkyl)amines as new selective h5-HT2Breceptor antagonists” (Medchemcomm, 2015).
pKi: −log10 of the molar value. The source made the active and inactive calls. No cut-off for these calls is given here.

Assays:
[1] = biological target: Beta-1 adrenergic receptor (Homo sapiens, UniProt P08588); assay: Displacement of [3H]CGP12177 human recombinant beta 1 adrenergic recptor expressed in CHO Flp-In cells after 90 mins by scintillation counting method; assay type: cell-based
[2] = biological target: Alpha-2B adrenergic receptor (Homo sapiens, UniProt P18089); assay: Displacement of [3H]Rauwolscine from human recombinant alpha 2B receptor expressed in HEKT cells after 90 mins by scintillation counting method; assay type: cell-based
[3] = biological target: Alpha-2A adrenergic receptor (Homo sapiens, UniProt P08913); assay: Displacement of [3H]Rauwolscine from human recombinant alpha 2A receptor stably expressed in MDCK cells after 90 mins by scintillation counting method; assay type: cell-based
[4] = biological target: 5-hydroxytryptamine receptor 2B (Homo sapiens, UniProt P41595); assay: Displacement of [3H]LSD from human recombinant 5-HT2B receptor stably expressed in HEK cell membrane after 90 mins by scintillation counting method; assay type: cell membranes, HEK293
[5] = test system: HEK293; assay: Selectivity ratio of Ki for human recombinant 5-HT2A receptor expressed in HEKT cell membrane to Ki for human recombinant 5-HT2B receptor stably expressed in HEK cells; assay type: cell-based
[6] = test system: HEK293; assay: Selectivity ratio of Ki for human recombinant 5-HT2C receptor to Ki for human recombinant 5-HT2B receptor stably expressed in HEK cell membrane; assay type: cell-based
[7] = biological target: 5-hydroxytryptamine receptor 1A (Homo sapiens, UniProt P08908); assay: Displacement of [3H]Way100635 from human recombinant 5-HT1A receptor stably expressed in CHO cell membrane after 90 mins by scintillation counting method; assay type: cell membranes
[8] = biological target: 5-hydroxytryptamine receptor 7 (Homo sapiens, UniProt P34969); assay: Displacement of [3H]LSD from human recombinant 5-HT7A receptor stably expressed in HEKT cell membrane after 90 mins by scintillation counting method; assay type: cell membranes
[9] = biological target: D(2) dopamine receptor (Homo sapiens, UniProt P14416); assay: Displacement of [3H]N-methylspiperone from human recombinant dopamine D2 receptor expressed in stable fibroblast after 90 mins by scintillation counting method
[10] = biological target: Histamine H1 receptor (Homo sapiens, UniProt P35367); assay: Displacement of [3H]Pyrilamine from human H1 Histamine receptors stably expressed in HEK cell membrane after 90 mins by scintillation counting method; assay type: cell membranes, HEK293
[11] = biological target: Kappa-type opioid receptor (Homo sapiens, UniProt P41145); assay: Displacement of [3H]U69593 from human kappa-opioid receptor stably expressed in HEK cell membrane after 90 mins by scintillation counting method; assay type: cell membranes, HEK293
[12] = biological target: Sodium-dependent serotonin transporter (Homo sapiens, UniProt P31645); assay: Displacement of [3H]Citalopram from human serotonin transporter transporter stably expressed in HEK293 cells after 30 mins by neurotransmitter transporter uptake assay; assay type: cell-based
[13] = biological target: 5-hydroxytryptamine receptor 1B (Homo sapiens) (UniProt P28222); assay: Displacement of [3H]5-CT from human recombinant 5-HT1B receptor stably expressed in HEK cell membrane after 90 mins by scintillation counting method; assay type: cell membranes; settings: HEK293
[14] = biological target: 5-hydroxytryptamine receptor 1E (Homo sapiens) (UniProt P28566); assay: Displacement of [3H]5-CT from human recombinant 5-HT1E receptor stably expressed in HEK cell membrane after 90 mins by scintillation counting method; assay type: cell membranes; settings: HEK293
[15] = biological target: 5-hydroxytryptamine receptor 3A (Homo sapiens) (UniProt P46098); assay: Displacement of [3H]GR65630 from human recombinant 5-HT3 receptor expressed in HEKT cell membrane after 90 mins by scintillation counting method; assay type: cell membranes
[16] = biological target: Alpha-1B adrenergic receptor (Homo sapiens) (UniProt P35368); assay: Displacement of [3H]Prazosin from human recombinant alpha 1B receptor expressed in HEKT cell membrane after 90 mins by scintillation counting method; assay type: cell membranes
[17] = biological target: Beta-3 adrenergic receptor (Homo sapiens) (UniProt P13945); assay: Displacement of [3H]CGP12177 from human recombinant beta 3 receptor expressed in HEK Flp-In cells after 90 mins by scintillation counting method; assay type: cell-based; settings: HEK293
[18] = organism: Rattus norvegicus; assay: Displacement of [3H]Muscimol from rat brain Gamma-aminobutyric acid type-A receptor after 90 mins by scintillation counting method
[19] = biological target: Histamine H3 receptor (Homo sapiens) (UniProt Q9Y5N1); assay: Displacement of [3H]alpha-methylhistamine from human H3 Histamine receptors expressed in HEK Flp-In cell after 90 mins by scintillation counting method; assay type: cell-based; settings: HEK293
[20] = biological target: Muscarinic acetylcholine receptor M1 (Homo sapiens) (UniProt P11229); assay: Displacement of [3H]QNB from human Muscarinic acetylcholine M1 receptor stably expressed in CHO cell after 90 mins by scintillation counting method; assay type: cell-based
[21] = biological target: Muscarinic acetylcholine receptor M2 (Homo sapiens) (UniProt P08172); assay: Displacement of [3H]NMS from human Muscarinic acetylcholine M2 receptor stably expressed in CHO cell after 90 mins by scintillation counting method; assay type: cell-based
[22] = biological target: Muscarinic acetylcholine receptor M3 (Homo sapiens) (UniProt P20309); assay: Displacement of [3H]QNB from human Muscarinic acetylcholine M3 receptor stably expressed in CHO cell after 90 mins by scintillation counting method; assay type: cell-based
[23] = biological target: Muscarinic acetylcholine receptor M4 (Homo sapiens) (UniProt P08173); assay: Displacement of [3H]NMS from human Muscarinic acetylcholine M4 receptor stably expressed in CHO cell after 90 mins by scintillation counting method; assay type: cell-based
[24] = biological target: Muscarinic acetylcholine receptor M5 (Homo sapiens) (UniProt P08912); assay: Displacement of [3H]QNB from human Muscarinic acetylcholine M5 receptor stably expressed in CHO cell after 90 mins by scintillation counting method; assay type: cell-based
[25] = biological target: Muscarinic acetylcholine receptor M5 (Homo sapiens) (UniProt P08912); assay: Displacement of [3H]NMS from human Muscarinic acetylcholine M5 receptor stably expressed in CHO cell after 90 mins by scintillation counting method; assay type: cell-based
[26] = biological target: 5-hydroxytryptamine receptor 2A (Homo sapiens, UniProt P28223); assay: Agonist activity at human recombinant 5-HT2A receptor expressed in Flp-In HEK cells preincubated for 10 mins by FLIPR based calcium mobilization assay; assay type: functional, cell-based; settings: HEK293
[27] = biological target: T1, 5-hydroxytryptamine receptor 2C (Homo sapiens) (UniProt P28335); assay: Agonist activity at human recombinant 5-HT2C receptor expressed in Flp-In HEK cells preincubated for 10 mins by FLIPR based calcium mobilization assay; assay type: functional, cell-based; settings: HEK293
T1 sequence (whole entry): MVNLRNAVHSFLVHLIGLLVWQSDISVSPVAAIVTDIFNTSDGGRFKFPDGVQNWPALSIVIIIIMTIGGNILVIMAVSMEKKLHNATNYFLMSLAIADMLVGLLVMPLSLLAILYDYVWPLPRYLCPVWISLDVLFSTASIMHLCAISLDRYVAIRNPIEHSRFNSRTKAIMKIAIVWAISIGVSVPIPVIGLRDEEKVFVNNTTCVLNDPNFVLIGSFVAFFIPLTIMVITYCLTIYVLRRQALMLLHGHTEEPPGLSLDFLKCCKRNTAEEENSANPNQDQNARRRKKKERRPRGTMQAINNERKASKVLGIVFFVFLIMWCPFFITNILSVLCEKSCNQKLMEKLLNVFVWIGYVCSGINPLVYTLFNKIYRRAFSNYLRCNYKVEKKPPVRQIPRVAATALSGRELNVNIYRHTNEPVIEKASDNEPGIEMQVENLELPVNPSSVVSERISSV

[28] = biological target: 5-hydroxytryptamine receptor 6 (Homo sapiens) (UniProt P50406); assay: Displacement of [3H]LSD from human recombinant 5-HT6 receptor stably expressed in HEK cell membrane by scintillation counting method; assay type: cell membranes; settings: HEK293

Sequence of Muscarinic acetylcholine receptor M5 (Homo sapiens) (P08912 whole entry): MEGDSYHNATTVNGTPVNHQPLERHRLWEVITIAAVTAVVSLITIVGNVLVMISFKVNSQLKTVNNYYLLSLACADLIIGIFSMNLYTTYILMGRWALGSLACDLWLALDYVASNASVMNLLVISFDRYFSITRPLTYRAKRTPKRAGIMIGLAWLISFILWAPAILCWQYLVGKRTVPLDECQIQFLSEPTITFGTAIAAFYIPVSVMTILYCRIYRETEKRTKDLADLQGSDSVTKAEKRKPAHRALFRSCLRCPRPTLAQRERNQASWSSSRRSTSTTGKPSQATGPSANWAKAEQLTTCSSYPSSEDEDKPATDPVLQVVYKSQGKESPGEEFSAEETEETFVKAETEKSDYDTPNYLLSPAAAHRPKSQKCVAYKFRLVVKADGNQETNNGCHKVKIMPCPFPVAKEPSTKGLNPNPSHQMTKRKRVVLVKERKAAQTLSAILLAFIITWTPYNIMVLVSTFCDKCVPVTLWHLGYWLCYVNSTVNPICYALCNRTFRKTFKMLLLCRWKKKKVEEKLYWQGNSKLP
Sequence of Muscarinic acetylcholine receptor M2 (Homo sapiens) (P08172 whole entry): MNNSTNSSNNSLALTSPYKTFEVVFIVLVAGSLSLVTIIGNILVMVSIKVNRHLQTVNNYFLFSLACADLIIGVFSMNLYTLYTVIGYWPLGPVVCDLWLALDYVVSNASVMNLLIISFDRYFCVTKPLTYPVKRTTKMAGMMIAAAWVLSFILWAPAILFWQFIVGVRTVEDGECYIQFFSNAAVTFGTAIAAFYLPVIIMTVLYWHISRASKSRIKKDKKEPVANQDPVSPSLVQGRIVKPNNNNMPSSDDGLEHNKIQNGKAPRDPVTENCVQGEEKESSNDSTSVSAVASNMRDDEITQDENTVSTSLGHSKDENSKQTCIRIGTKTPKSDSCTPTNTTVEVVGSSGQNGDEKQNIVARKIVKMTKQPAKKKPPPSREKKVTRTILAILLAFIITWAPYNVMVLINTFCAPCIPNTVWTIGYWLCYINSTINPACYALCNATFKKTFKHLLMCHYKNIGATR
Sequence of Muscarinic acetylcholine receptor M1 (Homo sapiens) (P11229 whole entry): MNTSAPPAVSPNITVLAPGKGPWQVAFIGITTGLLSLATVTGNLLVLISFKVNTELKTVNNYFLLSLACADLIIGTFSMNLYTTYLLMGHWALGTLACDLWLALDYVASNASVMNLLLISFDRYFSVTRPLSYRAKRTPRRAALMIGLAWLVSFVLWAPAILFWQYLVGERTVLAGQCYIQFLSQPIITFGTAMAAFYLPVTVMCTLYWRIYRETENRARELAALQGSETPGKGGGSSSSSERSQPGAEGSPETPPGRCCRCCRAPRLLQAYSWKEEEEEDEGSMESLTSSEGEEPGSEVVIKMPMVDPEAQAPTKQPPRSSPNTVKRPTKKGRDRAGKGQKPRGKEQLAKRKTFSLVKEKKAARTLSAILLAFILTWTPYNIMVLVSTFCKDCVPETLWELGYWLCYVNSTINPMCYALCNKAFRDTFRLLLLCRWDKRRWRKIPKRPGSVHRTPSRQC
Sequence of Histamine H3 receptor (Homo sapiens) (Q9Y5N1 whole entry): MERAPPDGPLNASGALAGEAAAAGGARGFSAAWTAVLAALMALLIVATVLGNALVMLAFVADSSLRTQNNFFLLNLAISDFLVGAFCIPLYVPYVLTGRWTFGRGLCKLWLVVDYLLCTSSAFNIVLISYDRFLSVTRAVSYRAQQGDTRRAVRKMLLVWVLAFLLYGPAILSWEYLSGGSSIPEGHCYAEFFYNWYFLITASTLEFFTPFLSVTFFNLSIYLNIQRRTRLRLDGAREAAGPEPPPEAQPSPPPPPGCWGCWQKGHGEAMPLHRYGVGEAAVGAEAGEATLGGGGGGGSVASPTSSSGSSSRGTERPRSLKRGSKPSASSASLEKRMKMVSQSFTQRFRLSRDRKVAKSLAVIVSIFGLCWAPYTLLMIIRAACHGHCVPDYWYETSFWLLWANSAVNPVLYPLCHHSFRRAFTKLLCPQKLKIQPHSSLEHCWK
Sequence of Histamine H1 receptor (P35367 whole entry): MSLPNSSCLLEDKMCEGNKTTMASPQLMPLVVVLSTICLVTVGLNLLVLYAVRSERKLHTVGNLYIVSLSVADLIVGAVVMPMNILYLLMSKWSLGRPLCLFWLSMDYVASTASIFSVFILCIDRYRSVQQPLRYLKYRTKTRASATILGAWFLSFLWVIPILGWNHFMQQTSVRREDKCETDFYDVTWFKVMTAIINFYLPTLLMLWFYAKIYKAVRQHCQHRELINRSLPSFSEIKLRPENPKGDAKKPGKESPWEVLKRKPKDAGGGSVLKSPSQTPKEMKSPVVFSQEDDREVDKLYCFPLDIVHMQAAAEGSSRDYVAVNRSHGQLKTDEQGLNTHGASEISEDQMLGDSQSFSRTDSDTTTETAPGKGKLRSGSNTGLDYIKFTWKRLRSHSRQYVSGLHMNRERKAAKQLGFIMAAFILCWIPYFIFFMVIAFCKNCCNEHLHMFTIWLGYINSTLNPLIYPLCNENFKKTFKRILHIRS
Sequence of Muscarinic acetylcholine receptor M3 (Homo sapiens) (P20309 whole entry, looked up): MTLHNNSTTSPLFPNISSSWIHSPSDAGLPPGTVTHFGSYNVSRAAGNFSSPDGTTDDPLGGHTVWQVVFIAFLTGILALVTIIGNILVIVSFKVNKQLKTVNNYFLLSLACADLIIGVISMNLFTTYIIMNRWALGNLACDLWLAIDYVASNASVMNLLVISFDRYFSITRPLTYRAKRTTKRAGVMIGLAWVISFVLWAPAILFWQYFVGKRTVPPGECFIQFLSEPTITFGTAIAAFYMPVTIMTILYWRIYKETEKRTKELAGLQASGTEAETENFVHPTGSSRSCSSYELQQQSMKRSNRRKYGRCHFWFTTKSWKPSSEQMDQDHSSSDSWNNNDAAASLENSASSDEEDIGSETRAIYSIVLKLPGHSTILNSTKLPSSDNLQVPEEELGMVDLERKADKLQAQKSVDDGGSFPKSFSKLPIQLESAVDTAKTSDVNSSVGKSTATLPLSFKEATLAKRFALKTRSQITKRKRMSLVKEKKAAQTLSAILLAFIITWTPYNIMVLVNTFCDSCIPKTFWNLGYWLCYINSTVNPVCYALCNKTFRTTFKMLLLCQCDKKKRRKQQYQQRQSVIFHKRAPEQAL
Sequence of D(2) dopamine receptor (P14416 whole entry): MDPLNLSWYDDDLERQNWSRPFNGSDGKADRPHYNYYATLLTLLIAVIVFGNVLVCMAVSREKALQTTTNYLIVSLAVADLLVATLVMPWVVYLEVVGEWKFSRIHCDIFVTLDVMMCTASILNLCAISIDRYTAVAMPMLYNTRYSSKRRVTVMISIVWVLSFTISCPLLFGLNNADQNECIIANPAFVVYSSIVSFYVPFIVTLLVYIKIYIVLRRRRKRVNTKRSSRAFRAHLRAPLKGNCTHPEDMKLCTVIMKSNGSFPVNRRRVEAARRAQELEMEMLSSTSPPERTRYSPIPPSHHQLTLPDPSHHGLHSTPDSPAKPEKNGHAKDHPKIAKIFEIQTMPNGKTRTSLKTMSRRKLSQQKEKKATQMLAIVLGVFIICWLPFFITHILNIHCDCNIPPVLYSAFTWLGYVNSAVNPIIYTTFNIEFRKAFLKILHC
Sequence of Kappa-type opioid receptor (P41145 whole entry): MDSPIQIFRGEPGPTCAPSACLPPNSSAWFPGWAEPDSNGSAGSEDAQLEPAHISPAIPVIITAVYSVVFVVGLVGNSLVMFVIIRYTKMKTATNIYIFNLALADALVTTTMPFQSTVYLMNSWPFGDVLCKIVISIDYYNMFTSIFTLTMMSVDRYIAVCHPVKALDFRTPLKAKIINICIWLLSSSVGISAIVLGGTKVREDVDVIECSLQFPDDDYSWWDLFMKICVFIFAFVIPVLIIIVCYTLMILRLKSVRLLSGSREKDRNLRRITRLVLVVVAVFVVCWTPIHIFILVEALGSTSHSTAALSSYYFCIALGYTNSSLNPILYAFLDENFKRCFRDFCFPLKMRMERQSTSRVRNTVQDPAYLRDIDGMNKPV
Sequence of Beta-1 adrenergic receptor (P08588 whole entry): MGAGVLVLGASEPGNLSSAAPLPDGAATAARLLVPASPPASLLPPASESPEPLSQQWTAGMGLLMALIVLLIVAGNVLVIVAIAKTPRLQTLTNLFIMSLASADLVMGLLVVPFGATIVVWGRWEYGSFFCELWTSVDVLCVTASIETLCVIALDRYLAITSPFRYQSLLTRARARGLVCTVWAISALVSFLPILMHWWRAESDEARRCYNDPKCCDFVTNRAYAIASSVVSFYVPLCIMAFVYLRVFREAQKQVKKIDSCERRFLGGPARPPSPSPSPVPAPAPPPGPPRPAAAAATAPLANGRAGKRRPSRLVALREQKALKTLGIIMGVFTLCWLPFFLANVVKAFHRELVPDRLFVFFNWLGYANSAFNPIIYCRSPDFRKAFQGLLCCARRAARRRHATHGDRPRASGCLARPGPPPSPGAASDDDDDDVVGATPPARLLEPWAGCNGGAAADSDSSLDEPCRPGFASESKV
Sequence of 5-hydroxytryptamine receptor 2B (P41595 whole entry): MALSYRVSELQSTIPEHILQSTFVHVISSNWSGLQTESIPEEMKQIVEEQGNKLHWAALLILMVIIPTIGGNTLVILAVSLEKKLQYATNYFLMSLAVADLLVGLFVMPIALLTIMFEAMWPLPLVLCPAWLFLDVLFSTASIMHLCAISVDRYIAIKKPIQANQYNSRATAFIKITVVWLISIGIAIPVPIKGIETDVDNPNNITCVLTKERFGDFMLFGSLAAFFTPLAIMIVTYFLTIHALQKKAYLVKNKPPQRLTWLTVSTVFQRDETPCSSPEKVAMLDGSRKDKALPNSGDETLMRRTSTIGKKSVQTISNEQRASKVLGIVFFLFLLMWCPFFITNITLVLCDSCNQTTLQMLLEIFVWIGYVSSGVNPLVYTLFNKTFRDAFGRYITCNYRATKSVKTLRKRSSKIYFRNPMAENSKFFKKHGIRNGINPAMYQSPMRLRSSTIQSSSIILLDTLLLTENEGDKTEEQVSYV

Structure (SMILES): COc1ccc(CCN(CCCc2ccccc2)CCc2ccc3c(c2)OCO3)cc1OC
- pKi [1]: 5.72
- pKi [2]: 7.54
- pKi [3]: 6.99
- pKi [4]: 7.59
- Ratio Ki [5]: 6
- Ratio Ki [6]: 15
- pKi [7]: 6.09
- pKi [8]: 6.15
- pKi [9]: 5.76
- pKi [10]: 5.89
- pKi [11]: 6.44
- pKi [12]: 6.00
- Activity [13]: inactive
- Activity [14]: inactive
- Activity [15]: inactive
- Activity [16]: inactive
- Activity [17]: inactive
- Activity [18]: inactive
- Activity [19]: inactive
- Activity [20]: inactive
- Activity [21]: inactive
- Activity [22]: inactive
- Activity [23]: inactive
- Activity [24]: inactive
- Activity [25]: inactive
- Activity [26]: inactive
- Activity [27]: inactive
- Activity [28]: inactive
